Assay results published in ChEMBL document CHEMBL3132742, “Hydrogen sulfide donors in research and drug development” (2014).

Tests used:
[1] = tested on: HT-29; assay: Anticancer activity against human HT-29 cells xenografted in mouse model assessed as suppression of cancer cell growth relative to control; format: functional
[2] = tested on: HT-29; assay: Anticancer activity against human HT-29 cells xenografted in mouse model assessed as reduction in tumor volume relative to control; format: functional

Q: How did the “fold change (FC)” value [1] turn out when O=C(CCCO[N+](=O)[O-])Oc1ccccc1C(=O)Oc1ccc(-c2cc(=S)ss2)cc1 was run?
A: Its value is 9000.

Q: And the “inhibition (INH)” value [2]?
A: The value was 85%.
